Data on 58 compounds can be found in US20240190855A1 (Relay Therapeutics, Inc., priority 2021, published 2024).

For this test, the target named is T1, CDK2/Cyclin E complex (Homo sapiens, UniProt P24941).
T1 construct: purchased Eurofins 14-475
The test is described as follows: CDK2/Cyclin E fluorescence-based microfluidic mobility shift assay (CDK2 Biochemical Caliper Assay). The following applies: read-out: Biochemical CDK2/CyclinE Caliper IC50. Summed up:
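Microfluidic mobility-shift readout after EDTA termination measured phosphorylation of fluorescent FL Peptide 18 (1.5 uM final) in a 20 hr room-temperature reaction. Compounds were tested at 11 concentrations (3-fold).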

A value given as a limit tells only on which side of the number the result lay.

With `COCc1cc(C(=O)Nc2cc([C@H]3CC[C@@H](c4ncc(C)cn4)C3)[nH]n2)n(C)n1` (single isomer, unassigned) [Example 592], the IC50 fell in the range of 1000 to 100000 nM.
As for `COCc1cc(C(=O)Nc2cc([C@@H]3CC[C@H](c4ncc(C)cn4)C3)[nH]n2)n(C)n1` (single isomer, unassigned) [Example 594], the figure is 1000 to 100000 nM; as for `COCc1cc(C(=O)Nc2cc([C@H]3CC[C@H](c4ncc(C)cn4)C3)[nH]n2)n(C)n1` (single isomer, unassigned) [Example 595], 1000 to 100000 nM; as for `COCc1cc(C(=O)Nc2cc([C@@H]3CC[C@@H](c4ncc(C)cn4)C3)[nH]n2)n(C)n1` (single isomer, unassigned) [Example 596], 1000 to 100000 nM.
As for `COCc1cc(C(=O)Nc2cc([C@H]3CC[C@@H](c4ccc(C)cn4)C3)[nH]n2)n(C)n1` (single isomer, unassigned) [Example 597], the figure is 1000 to 100000 nM.
As for `COCc1cc(C(=O)Nc2cc([C@@H]3CC[C@H](c4ccc(C)cn4)C3)[nH]n2)n(C)n1` (single isomer, unassigned) [Example 598], the figure is 1000 to 100000 nM; as for `COCc1cc(C(=O)Nc2cc([C@H]3CC[C@H](c4ccc(C)cn4)C3)[nH]n2)n(C)n1` (single isomer, unassigned) [Example 599], 1000 to 100000 nM; as for `COCc1cc(C(=O)Nc2cc([C@@H]3CC[C@@H](c4ccc(C)cn4)C3)[nH]n2)n(C)n1` (single isomer, unassigned) [Example 600], 1000 to 100000 nM.
For the compound `COCc1cc(C(=O)Nc2cc([C@H]3CC[C@@H](c4cc(C(C)C)ncn4)C3)[nH]n2)n(C)n1` (single isomer, unassigned) [Example 601], the IC50 was 1000 to 100000 nM.
In the case of `COCc1cc(C(=O)Nc2cc([C@@H]3CC[C@H](c4cc(C(C)C)ncn4)C3)[nH]n2)n(C)n1` (single isomer, unassigned) [Example 602] it was 1000 to 100000 nM; in that of `COCc1cc(C(=O)Nc2cc([C@H]3CC[C@H](c4cc(C(C)C)ncn4)C3)[nH]n2)n(C)n1` (single isomer, unassigned) [Example 603], 1000 to 100000 nM.
In the case of `COCc1cc(C(=O)Nc2cc([C@@H]3CC[C@@H](c4cc(C(C)C)ncn4)C3)[nH]n2)n(C)n1` (single isomer, unassigned) [Example 604] it was 1000 to 100000 nM; in that of `COCc1cc(C(=O)Nc2cc([C@H]3CC[C@@H](c4cccc(C(C)C)n4)C3)[nH]n2)n(C)n1` (single isomer, unassigned) [Example 605], 1000 to 100000 nM.
In the case of `COCc1cc(C(=O)Nc2cc([C@@H]3CC[C@H](c4cccc(C(C)C)n4)C3)[nH]n2)n(C)n1` (single isomer, unassigned) [Example 606] it was 1000 to 100000 nM.
As to `COCc1cc(C(=O)Nc2cc([C@H]3CC[C@H](c4cccc(C(C)C)n4)C3)[nH]n2)n(C)n1` (single isomer, unassigned) [Example 607], the IC50 fell in the range of 1000 to 100000 nM.
As for `COCc1cc(C(=O)Nc2cc([C@@H]3CC[C@@H](c4cccc(C(C)C)n4)C3)[nH]n2)n(C)n1` (single isomer, unassigned) [Example 608], the figure is 1000 to 100000 nM; as for `COCc1cc(C(=O)Nc2cc([C@H]3CC[C@@H](c4nccc(C(C)C)n4)C3)[nH]n2)n(C)n1` (single isomer, unassigned) [Example 609], not above 100 nM; as for `COCc1cc(C(=O)Nc2cc([C@@H]3CC[C@H](c4nccc(C(C)C)n4)C3)[nH]n2)n(C)n1` (single isomer, unassigned) [Example 610], not above 100 nM.
In the case of `COCc1cc(C(=O)Nc2cc([C@H]3CC[C@H](c4nccc(C(C)C)n4)C3)[nH]n2)n(C)n1` (single isomer, unassigned) [Example 611] it was 1000 to 100000 nM; in that of `COCc1cc(C(=O)Nc2cc([C@@H]3CC[C@@H](c4nccc(C(C)C)n4)C3)[nH]n2)n(C)n1` (single isomer, unassigned) [Example 612], 1000 to 100000 nM.
As for `COCc1cc2c(Nc3cc([C@H]4C[C@@H](OC(=O)NC(C)(C)C)CO4)[nH]n3)nccn2n1` (single isomer, unassigned) [Example 617], the figure is not above 100 nM; as for `COCc1cc2c(Nc3cc([C@@H]4C[C@H](OC(=O)NC(C)(C)C)CO4)[nH]n3)nccn2n1` (single isomer, unassigned) [Example 618], not above 100 nM.
On to `COCc1cc2c(Nc3cc([C@H]4C[C@@H](OC(=O)N[C@]5(C)CC5(F)F)CO4)[nH]n3)nccn2n1` (single isomer, unassigned) [Example 729], for which the IC50 was not above 100 nM.
On to `COCc1cc2c(Nc3cc([C@H]4C[C@@H](OC(=O)N[C@@]5(C)CC5(F)F)CO4)[nH]n3)nccn2n1` (single isomer, unassigned) [Example 731], for which the IC50 is not above 100 nM.
Take `COCc1cc2c(Nc3cc([C@H]4C[C@@H](OC(=O)N[C@@H](C)CC(F)(F)F)CO4)[nH]n3)nccn2n1` (single isomer, unassigned) [Example 739]: the IC50 is not above 100 nM.
As for `COCc1cc2c(Nc3cc([C@H]4C[C@@H](OC(=O)N[C@H](C)CC(F)(F)F)CO4)[nH]n3)nccn2n1` (single isomer, unassigned) [Example 757], the figure is not above 100 nM; as for `CO[C@H](c1cc(C(=O)Nc2cc([C@H]3C[C@@H](OC(=O)NC4(C)CC4)CO3)[nH]n2)n(C)n1)C(F)(F)F` (single isomer, unassigned) [Example 889], 100 to 250 nM; as for `CO[C@@H](c1cc(C(=O)Nc2cc([C@H]3C[C@@H](OC(=O)NC4(C)CC4)CO3)[nH]n2)n(C)n1)C(F)(F)F` (single isomer, unassigned) [Example 890], not above 100 nM.
As to `CO[C@@H](C)c1cc2c(Nc3cc([C@H]4C[C@@H](OC(=O)NC5(C)CC5)CO4)[nH]n3)nccn2n1` (single isomer, unassigned) [Example 891], the IC50 is not above 100 nM.
With `CO[C@H](C)c1cc2c(Nc3cc([C@H]4C[C@@H](OC(=O)NC5(C)CC5)CO4)[nH]n3)nccn2n1` (single isomer, unassigned) [Example 892], the IC50 is not above 100 nM.
Turning to `Cn1nc(COC(F)(F)F)cc1C(=O)Nc1ncc([C@@H]2C[C@H](OC(=O)NC3(C)CC3)CO2)s1` (single isomer, unassigned) [Example 899], the IC50 is not above 100 nM.
In the case of `COCc1cc(C(=O)Nc2ncc([C@@H]3C[C@H](OC(=O)NC4(C)CC4)CO3)s2)n(C)n1` (single isomer, unassigned) [Example 900] it was not above 100 nM; in that of `Cn1nc(COC(F)(F)F)cc1C(=O)Nc1ncc([C@H]2C[C@@H](OC(=O)NC3(C)CC3)CO2)s1` (single isomer, unassigned) [Example 903], not above 100 nM; in that of `COCc1cc(C(=O)Nc2ncc([C@H]3C[C@@H](OC(=O)NC4(C)CC4)CO3)s2)n(C)n1` (single isomer, unassigned) [Example 905], not above 100 nM.
As for `Cc1cc(CC(=O)Nc2ncc(C3CCCC3)o2)on1` [Example 38], the figure is 1000 to 100000 nM; as for `Cc1cc(CC(=O)Nc2nc(C3CCCC3)c[nH]2)on1` [Example 43], 1000 to 100000 nM.
As for `Cc1cc(CC(=O)Nc2cc(C3(C)CCCC3)[nH]n2)on1` [Example 47], the figure is 1000 to 100000 nM; as for `Cc1cc(CC(=O)Nc2cc(C3CCCCC3)[nH]n2)on1` [Example 48], 1000 to 100000 nM.
Regarding `Cc1cc(CC(=O)Nc2cc([C@H]3C[C@@H]4C[C@@H]4C3)[nH]n2)on1` [Example 50], the IC50 was 1000 to 100000 nM.
In the case of `Cc1cc(CC(=O)Nc2cc(N3CC[C@H](COC(=O)NC4(C)CC4)C3)[nH]n2)on1` [Example 51] it was 1000 to 100000 nM; in that of `Cc1cc(CC(=O)Nc2cc(N3CC[C@H]3COC(=O)NC3(C)CC3)[nH]n2)on1` [Example 52], 1000 to 100000 nM.
Take `Cc1cc(CC(=O)Nc2cc(C3CCNCC3)[nH]n2)on1` [Example 54]: the IC50 fell in the range of 1000 to 100000 nM.
On to `Cc1cc(CC(=O)Nc2cc(C3CC3)[nH]n2)on1` [Example 59], for which the IC50 was in the range of 1000 to 100000 nM.
In the case of `Cc1cc(CC(=O)Nc2cn(C3CCCC3)cn2)on1` [Example 60] it was 1000 to 100000 nM; in that of `Cc1cc(CC(=O)Nc2ncn(C3CCCC3)n2)on1` [Example 61], 1000 to 100000 nM; in that of `Cc1cc(CC(=O)Nc2cc(-c3ccccc3)[nH]n2)on1` [Example 62], 1000 to 100000 nM.
In the case of `Cc1cc(CC(=O)Nc2cc(C3CCCC3)[nH]n2)on1` [Example 66] it was 1000 to 100000 nM; in that of `Cc1cc(CC(=O)Nc2cc([C@H]3C[C@@H](COC(=O)NC(C)C)C3)[nH]n2)on1` [Example 125], not above 100 nM; in that of `Cc1cc(CC(=O)Nc2cc([C@H]3CC[C@@H](COC(=O)NC(C)C)CC3)[nH]n2)on1` [Example 135], 1000 to 100000 nM.
Regarding `Cc1cc(CC(=O)Nc2cc([C@H]3CC[C@@H](OC(=O)N(C(C)C)C(C)C)C3)n[nH]2)on1` [Example 147], the IC50 is not above 100 nM.
For the compound `Cc1cc(CC(=O)Nc2cc(-c3csc4cncnc34)[nH]n2)on1` [Example 240], the IC50 lay in the range of 1000 to 100000 nM.
In the case of `COCc1cc(C(=O)Nc2cc(-c3csc4cncnc34)[nH]n2)n(C)n1` [Example 242] it was 1000 to 100000 nM; in that of `Cc1cc(CC(=O)Nc2cc(C34CCC(CC3)C4)[nH]n2)on1` [Example 244], 1000 to 100000 nM.
In the case of `c1cnc(Nc2cc(C34CCC(CC3)C4)[nH]n2)nc1` [Example 314] it was 1000 to 100000 nM; in that of `Cc1cc(CC(=O)Nc2cc(-c3csc4cnc(NC(C)C)nc34)[nH]n2)on1` [Example 336], 250 to 1000 nM.
In the case of `COCc1cc(C(=O)Nc2cc(-c3csc4cnc(NC(C)C)nc34)[nH]n2)n(C)n1` [Example 337] it was 1000 to 100000 nM; in that of `Cc1cc(CC(=O)Nc2cc([C@H]3C[C@@H](CC(=O)NC(C)C)C3)[nH]n2)on1` [Example 347], 1000 to 100000 nM.
As to `Cc1cc(CC(=O)Nc2cc([C@H]3C[C@H](CC(=O)NC(C)C)C3)[nH]n2)on1` [Example 348], the IC50 was in the range of 1000 to 100000 nM.
